Laboratory results taken from patent US5464748A, “Method of detecting and monitoring levels of 3'-amino-3'-deoxythymidine in body fluids and antibodies for same” (The UAB Research Foundation, priority 1993, dated 1995).

Key:
[1] = system: antiviral activity of AZT; assay: effect of AMT on antiviral activity of AZT
[2] = system: erythroid burst-forming units (BFU-E); assay: toxicity to erythroid burst-forming units; format: cell-based; conditions: compared with AZT
[3] = system: granulocyte macrophage colony-forming units (CFU-GM); assay: toxicity to granulocyte macrophage colony-forming units; format: cell-based; conditions: compared with AZT
[4] = system: Human Immunodeficiency Virus (HIV); conditions: HIV infected patients; cited from earlier work
bone marrow cells = conditions: AZT treatment; cited from earlier work
[5] = recently discovered; Cretton et al 1991; cited from earlier work
[6] = pharmacokinetics and metabolism of AZT: hepatic catabolites; format: in vivo, human; conditions: in addition to GAZT

SMILES	effect on the antiviral activity of AZT ([1]; concentrations as low as a 1:1 molar ratio with AZT)	interference with the antiviral activity of AZT ([1]; stated as believed, no concentration given)	toxicity to BFU-E relative to AZT [2]	toxicity to CFU-GM relative to AZT [3]	clinical benefits [4]	toxicity to bone marrow cells (bone marrow cells)	hepatic catabolite of AZT [5]	hepatic catabolites of AZT [6]
Cc1cn([C@H]2C[C@H](N)[C@@H](CO)O2)c(=O)[nH]c1=O [AMT, 3'-amino-3'-deoxythymidine]	adverse effect on the antiviral activity of AZT	believed to interfere with the antiviral activity of AZT	many more times toxic	many more times toxic	–	–	–	–
Cc1cn([C@H]2C[C@H](N=[N+]=[N-])[C@@H](CO)O2)c(=O)[nH]c1=O [AZT, 3'-azido-3'-deoxythymidine]	–	–	–	–	increased survival, decreased number of opportunistic infections, and partial improvement in neurologic manifestations	toxicity to bone marrow cells, manifested by anemia and neutropenia	3'-amino-3'-deoxythymidine (AMT)	3'-amino-3'-deoxythymidine (AMT) and its 5'-O-glucuronide(GAMT)
